Results on 25 molecules are retold here after US9963456B2, “Pyrrolopyrimidine compound or salt thereof and compositions containing the pyrrolopyrimidine compound or salt thereof” (TAIHO PHARMACEUTICAL CO., LTD., priority 2014, dated 2018).

In general, IC50 refers to the concentration that inhibits the measured activity by half. High values mean lower potency, low ones higher potency.

The target of the assay is NAE (heterodimer of APPBP1 and UBA3) (Homo sapiens (Human), UniProt Q8TBC4). Put plainly: Nedd8 conjugation inhibitory activity (AlphaScreen assay). Conditions: purified NAE, GST-UBC12, Biotin-Nedd8, ATP. The assay is classed as biochemical. Background: Alpha assays give light when donor and acceptor beads are brought close together.
Chain of NAE (heterodimer of APPBP1 and UBA3) (Q8TBC4 whole entry): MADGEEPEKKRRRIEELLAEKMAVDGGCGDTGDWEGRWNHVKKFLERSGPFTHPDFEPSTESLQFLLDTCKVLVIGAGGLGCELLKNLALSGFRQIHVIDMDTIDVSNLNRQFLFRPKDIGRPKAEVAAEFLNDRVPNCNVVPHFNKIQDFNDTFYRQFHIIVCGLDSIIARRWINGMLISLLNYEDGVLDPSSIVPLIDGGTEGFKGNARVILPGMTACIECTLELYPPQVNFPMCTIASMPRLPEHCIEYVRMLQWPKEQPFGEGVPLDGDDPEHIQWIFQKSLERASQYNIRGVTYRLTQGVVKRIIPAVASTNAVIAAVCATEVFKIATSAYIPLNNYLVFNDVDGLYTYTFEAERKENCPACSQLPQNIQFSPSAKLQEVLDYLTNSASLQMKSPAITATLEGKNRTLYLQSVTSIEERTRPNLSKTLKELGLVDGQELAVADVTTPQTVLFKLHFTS
Chain of NAE (heterodimer of APPBP1 and UBA3) (Q13564 whole entry partner): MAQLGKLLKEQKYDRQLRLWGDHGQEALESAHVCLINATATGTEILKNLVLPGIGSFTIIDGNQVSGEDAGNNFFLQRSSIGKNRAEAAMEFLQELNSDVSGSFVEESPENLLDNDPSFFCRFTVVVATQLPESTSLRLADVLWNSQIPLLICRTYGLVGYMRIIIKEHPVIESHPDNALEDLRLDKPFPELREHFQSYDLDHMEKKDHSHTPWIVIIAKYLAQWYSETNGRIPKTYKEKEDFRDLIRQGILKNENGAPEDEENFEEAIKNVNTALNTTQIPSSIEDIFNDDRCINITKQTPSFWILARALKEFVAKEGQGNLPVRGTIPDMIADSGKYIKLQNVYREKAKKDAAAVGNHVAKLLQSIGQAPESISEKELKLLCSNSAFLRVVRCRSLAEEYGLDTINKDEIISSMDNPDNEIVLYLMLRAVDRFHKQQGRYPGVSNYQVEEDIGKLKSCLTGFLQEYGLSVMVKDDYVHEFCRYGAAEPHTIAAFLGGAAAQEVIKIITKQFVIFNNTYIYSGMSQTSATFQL

Consider `Nc1ncnc2c1c(C#Cc1nccc3ccccc13)cn2[C@@H]1O[C@H](CNS(N)(=O)=O)[C@@H](O)[C@H]1O` [Example 11, 1-[2-[4-Amino-7-[(2R,3R,4S,5R)-3,4-dihydroxy-5-[(sulfamoylamino)methyl]tetrahydrofuran-2-yl]pyrrolo[2,3-d]pyrimidin-5-yl]ethynyl]isoquinoline], for which the IC50 turned out to be 0.0078 µM.
The figure for `COc1cccc(OC)c1C#Cc1cn([C@@H]2O[C@H](CNS(N)(=O)=O)[C@@H](O)[C@H]2O)c2ncnc(N)c12` [Example 16, 4-Amino-7-[(2R,3R,4S,5R)-3,4-dihydroxy-5-[(sulfamoylamino)methyl]tetrahydrofuran-2-yl]-5-[2-(2,6-dimethoxyphenyl)ethynyl]pyrrolo[2,3-d]pyrimidine] is 0.0096 µM; for `COc1ccc2cccnc2c1C#Cc1cn([C@@H]2O[C@H](CNS(N)(=O)=O)[C@@H](O)[C@H]2O)c2ncnc(N)c12` [Example 63, 8-[2-[4-Amino-7-[(2R,3R,4S,5R)-3,4-dihydroxy-5-[(sulfamoylamino)methyl]tetrahydrofuran-2-yl]pyrrolo[2,3-d]pyrimidin-5-yl]ethynyl]-7-methoxyquinoline] it is 0.011 µM; for `CCS(=O)(=O)c1cc(N2CCCC2)cc(F)c1C#Cc1cn([C@@H]2O[C@H](CNS(N)(=O)=O)[C@@H](O)[C@H]2O)c2ncnc(N)c12` [Example 70, 4-Amino-7-[(2R,3R,4S,5R)-3,4-dihydroxy-5-[(sulfamoylamino)methyl]tetrahydrofuran-2-yl]-5-[2-(2-ethylsulfonyl-6-fluoro-4-pyrrolidin-1-yl-phenyl)ethynyl]pyrrolo[2,3-d]pyrimidine] it is 0.013 µM.
The figure for `Nc1ncnc2c1c(C#Cc1ccc3[nH]ncc3n1)cn2[C@@H]1O[C@H](CNS(N)(=O)=O)[C@@H](O)[C@H]1O` [Example 19, 4-Amino-7-[(2R,3R,4S,5R)-3,4-dihydroxy-5-[(sulfamoylamino)methyl]tetrahydrofuran-2-yl]-5-[2-(1H-pyrazolo[4,3-b]pyridin-5-yl)ethynyl]pyrrolo[2,3-d]pyrimidine] is 0.028 µM; for `Nc1ncnc2c1c(C#Cc1c(F)cc(N3CCC3)cc1F)cn2[C@@H]1C[C@H](CNS(N)(=O)=O)[C@@H](O)[C@H]1O` [Example 118, 4-Amino-5-[2-[4-(azetidin-1-yl)-2,6-difluoro-phenyl]ethynyl]-7-[(1R,2S,3R,4R)-2,3-dihydroxy-4-[(sulfamoylamino)methyl]cyclopentyl]pyrrolo[2,3-d]pyrimidine] it is 0.0068 µM; for `Nc1ncnc2c1c(C#Cc1ccccc1OC(F)F)cn2[C@@H]1O[C@H](CNS(N)(=O)=O)[C@@H](O)[C@H]1O` [Example 18, 4-Amino-5-[2-[2-(difluoromethoxy)phenyl]ethynyl]-7-[(2R,3R,4S,5R)-3,4-dihydroxy-5-[(sulfamoylamino)methyl]tetrahydrofuran-2-yl]pyrrolo[2,3-d]pyrimidine] it is 0.027 µM.
The figure for `COc1cccc(F)c1C#Cc1cn([C@@H]2C[C@H](CNS(N)(=O)=O)[C@@H](O)[C@H]2O)c2ncnc(N)c12` [Example 95, 4-Amino-7-[(1R,2S,3R,4R)-2,3-dihydroxy-4-[(sulfamoylamino)methyl]cyclopentyl]-5-[2-(2-fluoro-6-methoxy-phenyl)ethynyl]pyrrolo[2,3-d]pyrimidine] is 0.013 µM.
Molecule `CCNc1cc(F)c(C#Cc2cn([C@@H]3O[C@H](CNS(N)(=O)=O)[C@@H](O)[C@H]3O)c3ncnc(N)c23)c(F)c1` [Example 26, 4-Amino-7-[(2R,3R,4S,5R)-3,4-dihydroxy-5-[(sulfamoylamino)methyl]tetrahydrofuran-2-yl]-5-[2-[4-(ethylamino)-2,6-difluoro-phenyl]ethynyl]pyrrolo[2,3-d]pyrimidine] returned an IC50 of 0.012 µM.
As for `Nc1ncnc2c1c(C#Cc1ccnc3ccccc13)cn2[C@@H]1O[C@H](CNS(N)(=O)=O)[C@@H](O)[C@H]1O` [Example 8, 4-[2-[4-Amino-7-[(2R,3R,4S,5R)-3,4-dihydroxy-5-[(sulfamoylamino)methyl]tetrahydrofuran-2-yl]pyrrolo[2,3-d]pyrimidin-5-yl]ethynyl]quinoline], half-maximal inhibition (IC50) required 0.029 µM.
On to `Nc1ncnc2c1c(C#Cc1ccccc1)cn2[C@H]1C[C@H](O)[C@@H](COS(N)(=O)=O)O1` [Example 134, [(2R,3S,5R)-5-[4-Amino-5-(2-phenylethynyl)pyrrolo[2,3-d]pyrimidin-7-yl]-3-hydroxy-tetrahydrofuran-2-yl]methyl sulfamate], for which the IC50 was found to be 0.018 µM.
The figure for `Nc1ncnc2c1c(C#Cc1ncc(OCc3ccccc3)cn1)cn2[C@@H]1O[C@H](CNS(N)(=O)=O)[C@@H](O)[C@H]1O` [Example 76, 4-Amino-5-[2-(5-benzyloxypyrimidin-2-yl)ethynyl]-7-[(2R,3R,4S,5R)-3,4-dihydroxy-5-[(sulfamoylamino)methyl]tetrahydrofuran-2-yl]pyrrolo[2,3-d]pyrimidine] is 0.0051 µM; for `CCOc1cccc(OC)c1C#Cc1cn([C@@H]2O[C@H](CNS(N)(=O)=O)[C@@H](O)[C@H]2O)c2ncnc(N)c12` [Example 62, 4-Amino-7-[(2R,3R,4S,5R)-3,4-dihydroxy-5-[(sulfamoylamino)methyl]tetrahydrofuran-2-yl]-5-[2-(2-ethoxy-6-methoxy-phenyl)ethynyl]pyrrolo[2,3-d]pyrimidine] it is 0.016 µM.
In turn, `Nc1ncnc2c1c(C#Cc1ccccc1S(N)(=O)=O)cn2[C@@H]1O[C@H](CNS(N)(=O)=O)[C@@H](O)[C@H]1O` [Example 90, 2-[2-[4-Amino-7-[(2R,3R,4S,5R)-3,4-dihydroxy-5-[(sulfamoylamino)methyl]tetrahydrofuran-2-yl]pyrrolo[2,3-d]pyrimidin-5-yl]ethynyl]benzenesulfonamide] displayed an IC50 of 0.0056 µM.
For `COc1cccc(F)c1C#Cc1cn([C@@H]2O[C@H](CNS(N)(=O)=O)[C@@H](O)[C@H]2O)c2ncnc(N)c12` [Example 51, 4-Amino-7-[(2R,3R,4S,5R)-3,4-dihydroxy-5-[(sulfamoylamino)methyl]tetrahydrofuran-2-yl]-5-[2-(2-fluoro-6-methoxy-phenyl)ethynyl]pyrrolo[2,3-d]pyrimidine], the concentration for half-maximal inhibition (IC50) is 0.0035 µM.
`CCOc1cc(F)cc(F)c1C#Cc1cn([C@@H]2O[C@H](CNS(N)(=O)=O)[C@@H](O)[C@H]2O)c2ncnc(N)c12` [Example 35, 4-Amino-7-[(2R,3R,4S,5R)-3,4-dihydroxy-5-[(sulfamoylamino)methyl]tetrahydrofuran-2-yl]-5-[2-(2-ethoxy-4,6-difluoro-phenyl)ethynyl]pyrrolo[2,3-d]pyrimidine] returned an IC50 of 0.0041 µM.
`CSc1cccc(F)c1C#Cc1cn([C@@H]2C[C@H](CNS(N)(=O)=O)[C@@H](O)[C@H]2O)c2ncnc(N)c12` [Example 98, 4-Amino-7-[(1R,2S,3R,4R)-2,3-dihydroxy-4-[(sulfamoylamino)methyl]cyclopentyl]-5-[2-(2-fluoro-6-methylsulfanyl-phenyl)ethynyl]pyrrolo[2,3-d]pyrimidine] yielded a 50% inhibitory concentration (IC50) of 0.0083 µM.
On to `CCOc1cc(N2CCOCC2)cc(F)c1C#Cc1cn([C@@H]2O[C@H](CNS(N)(=O)=O)[C@@H](O)[C@H]2O)c2ncnc(N)c12` [Example 34, 4-[4-[2-[4-Amino-7-[(2R,3R,4S,5R)-3,4-dihydroxy-5-[(sulfamoylamino)methyl]tetrahydrofuran-2-yl]pyrrolo[2,3-d]pyrimidin-5-yl]ethynyl]-3-ethoxy-5-fluoro-phenyl]morpholine], for which the IC50 is 0.024 µM.
Molecule `COc1cncc(F)c1C#Cc1cn([C@@H]2O[C@H](CNS(N)(=O)=O)[C@@H](O)[C@H]2O)c2ncnc(N)c12` [Example 71, 4-Amino-7-[(2R,3R,4S,5R)-3,4-dihydroxy-5-[(sulfamoylamino)methyl]tetrahydrofuran-2-yl]-5-[2-(3-fluoro-5-methoxy-4-pyridyl)ethynyl]pyrrolo[2,3-d]pyrimidine] came in with a half-maximal inhibitory concentration (IC50) of 0.014 µM.
The figure for `Cc1ccc(Cn2cc(-c3cn([C@H]4C[C@H](O)[C@@H](COS(N)(=O)=O)O4)c4ncnc(N)c34)cn2)cc1C` [Example 137, [(2R,3S,5R)-5-[4-Amino-5-[1-[(3,4-dimethylphenyl)methyl]pyrazol-4-yl]pyrrolo[2,3-d]pyrimidin-7-yl]-3-hydroxy-tetrahydrofuran-2-yl]methyl sulfamate] is 0.019 µM; for `CSc1ccccc1C#Cc1cn([C@@H]2O[C@H](CNS(N)(=O)=O)[C@@H](O)[C@H]2O)c2ncnc(N)c12` [Example 89, 4-Amino-7-[(2R,3R,4S,5R)-3,4-dihydroxy-5-[(sulfamoylamino)methyl]tetrahydrofuran-2-yl]-5-[2-(2-methylsulfanylphenyl)ethynyl]pyrrolo[2,3-d]pyrimidine] it is 0.011 µM; for `Nc1ncnc2c1c(C#Cc1c(F)cc(O)cc1F)cn2[C@@H]1O[C@H](CNS(N)(=O)=O)[C@@H](O)[C@H]1O` [Example 54, 4-Amino-5-[2-(2,6-difluoro-4-hydroxy-phenyl)ethynyl]-7-[(2R,3R,4S,5R)-3,4-dihydroxy-5-[(sulfamoylamino)methyl]tetrahydrofuran-2-yl]pyrrolo[2,3-d]pyrimidine] it is 0.0045 µM.
Take `Nc1ncnc2c1c(C#Cc1ncccc1F)cn2[C@@H]1O[C@H](CNS(N)(=O)=O)[C@@H](O)[C@H]1O` [Example 88, 4-Amino-7-[(2R,3R,4S,5R)-3,4-dihydroxy-5-[(sulfamoylamino)methyl]tetrahydrofuran-2-yl]-5-[2-(3-fluoro-2-pyridyl)ethynyl]pyrrolo[2,3-d]pyrimidine]: half-maximal inhibition (IC50) was put at 0.018 µM.
The figure for `Nc1ncnc2c1c(C#Cc1c(F)cc(N3CCSCC3)cc1F)cn2[C@@H]1O[C@H](CNS(N)(=O)=O)[C@@H](O)[C@H]1O` [Example 37, 4-[4-[2-[4-Amino-7-[(2R,3R,4S,5R)-3,4-dihydroxy-5-[(sulfamoylamino)methyl]tetrahydrofuran-2-yl]pyrrolo[2,3-d]pyrimidin-5-yl]ethynyl]-3,5-difluoro-phenyl]thiomorpholine] is 0.011 µM.
Take `Nc1ncnc2c1c(C#Cc1c(F)cccc1OCC(F)(F)F)cn2[C@@H]1O[C@H](CNS(N)(=O)=O)[C@@H](O)[C@H]1O` [Example 61, 4-Amino-7-[(2R,3R,4S,5R)-3,4-dihydroxy-5-[(sulfamoylamino)methyl]tetrahydrofuran-2-yl]-5-[2-[2-fluoro-6-(2,2,2-trifluoroethoxy)phenyl]ethynyl]pyrrolo[2,3-d]pyrimidine]: it took 0.0038 µM to reach half-maximal inhibition (IC50).
